The record followed here is patent publication US20230045421A1 (priority 2018, published 2023).

The structures appear in SMILES notation. pEC50: −log10 of the molar value.

The first assay has as its system HBV rcDNA. The assay can be described thus: HepDE19 assay with bDNA quantitation of HBV rcDNA. Type of assay: cell-based, hepatitis B virus. The following applies: HepDE19 assay, inhibition of formation of rcDNA; read-out: DE-19bDNA EC50. In a few lines:
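HepDE19 cells (HepG2-derived, Tet-regulated HBV replication) were deprived of tetracycline and then exposed to compounds for 7 days at 37 °C in 0.5% DMSO, 8-point titration from 25 μM. rcDNA was quantified by bDNA and EC50/EC90 came from 4-parameter fits. CC50 was measured by CellTiter-Glo ATP content on replicate plates after 4 days.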
Regarding `CC(c1c[nH]c(=O)c2ccccc12)N(CC1CC1)C(=O)Nc1ccc(F)c(Cl)c1` (single isomer, unassigned) [Compound 86, 3-(3-Chloro-4-fluorophenyl)-1-(cyclopropylmethyl)-1-(1-(1-oxo-1,2-dihydroisoquinolin-4-yl)ethyl)urea], the pEC50 was 7.70.

On to `CC(c1c[nH]c(=O)c2ccccc12)N(CCC(=O)N(C)C)C(=O)Nc1ccc(F)c(Cl)c1` (single isomer, unassigned) [Compound 105, 3-(3-(3-Chloro-4-fluorophenyl)-1-(1-(1-oxo-1,2-dihydroisoquinolin-4-yl)ethyl)ureido)-N,N-dimethylpropanamide], for which the pEC50 is 5.47.

As to `CC(c1c[nH]c(=O)c2ccccc12)N(CCC(=O)N(C)C)C(=O)Nc1ccc(F)c(Cl)c1` (single isomer, unassigned) [Compound 106, 3-(3-(3-Chloro-4-fluorophenyl)-1-(1-(1-oxo-1,2-dihydroisoquinolin-4-yl)ethyl)ureido)-N,N-dimethylpropanamide], the pEC50 is 7.10.

In the case of `CC(c1c[nH]c(=O)c2ccccc12)N(CCS(C)(=O)=O)C(=O)Nc1ccc(F)c(Cl)c1` (single isomer, unassigned) [Compound 107, 3-(3-Chloro-4-fluorophenyl)-1-(2-(methylsulfonyl)ethyl)-1-(1-(1-oxo-1,2-dihydroisoquinolin-4-yl)ethyl)urea], the pEC50 is 4.77.

On to `CC(c1c[nH]c(=O)c2ccccc12)N(CCS(C)(=O)=O)C(=O)Nc1ccc(F)c(Cl)c1` (single isomer, unassigned) [Compound 108, 3-(3-Chloro-4-fluorophenyl)-1-(2-(methylsulfonyl)ethyl)-1-(1-(1-oxo-1,2-dihydroisoquinolin-4-yl)ethyl)urea], for which the pEC50 was 7.30.

As for `CC(c1c[nH]c(=O)c2ccccc12)N(CCC#N)C(=O)Nc1ccc(F)c(Cl)c1` (single isomer, unassigned) [Compound 112, 3-(3-Chloro-4-fluorophenyl)-1-(2-cyanoethyl)-1-(1-(1-oxo-1,2-dihydroisoquinolin-4-yl)ethyl)urea], the pEC50 was 5.55.

Take `CC(c1c[nH]c(=O)c2ccccc12)N(CCC#N)C(=O)Nc1ccc(F)c(Cl)c1` (single isomer, unassigned) [Compound 113, 3-(3-Chloro-4-fluorophenyl)-1-(2-cyanoethyl)-1-(1-(1-oxo-1,2-dihydroisoquinolin-4-yl)ethyl)urea]: the pEC50 was 7.22.

`CC(c1c[nH]c(=O)c2ccccc12)N(CCCC#N)C(=O)Nc1ccc(F)c(Cl)c1` (single isomer, unassigned) [Compound 114, 3-(3-Chloro-4-fluorophenyl)-1-(3-cyanopropyl)-1-(1-(1-oxo-1,2-dihydroisoquinolin-4-yl)ethyl)urea]: the pEC50 is 5.72.

Turning to `CC(c1c[nH]c(=O)c2ccccc12)N(CCCC#N)C(=O)Nc1ccc(F)c(Cl)c1` (single isomer, unassigned) [Compound 115, 3-(3-Chloro-4-fluorophenyl)-1-(3-cyanopropyl)-1-(1-(1-oxo-1,2-dihydroisoquinolin-4-yl)ethyl)urea], the pEC50 was 8.00.

As to `CNC(=O)CCN(C(=O)Nc1ccc(F)c(Cl)c1)C(C)c1c[nH]c(=O)c2ccccc12` (single isomer, unassigned) [Compound 117, 3-(3-(3-Chloro-4-fluorophenyl)-1-(1-(1-oxo-1,2-dihydroisoquinolin-4-yl)ethyl)ureido)-N-methylpropanamide], the pEC50 is 4.89.

Regarding `CNC(=O)CCN(C(=O)Nc1ccc(F)c(Cl)c1)C(C)c1c[nH]c(=O)c2ccccc12` (single isomer, unassigned) [Compound 118, 3-(3-(3-Chloro-4-fluorophenyl)-1-(1-(1-oxo-1,2-dihydroisoquinolin-4-yl)ethyl)ureido)-N-methylpropanamide], the pEC50 was 6.85.

Regarding `CC(c1c[nH]c(=O)c2ccccc12)N(CCS(N)(=O)=O)C(=O)Nc1ccc(F)c(Cl)c1` (single isomer, unassigned) [Compound 119, 2-(3-(3-Chloro-4-fluorophenyl)-1-(1-(1-oxo-1,2-dihydroisoquinolin-4-yl)ethyl)ureido) ethanesulfonamide], the negative-log EC50 (pEC50) was 7.15.

Turning to `CC(c1c[nH]c(=O)c2ccccc12)N(CCS(N)(=O)=O)C(=O)Nc1ccc(F)c(Cl)c1` (single isomer, unassigned) [Compound 120, 2-(3-(3-Chloro-4-fluorophenyl)-1-(1-(1-oxo-1,2-dihydroisoquinolin-4-yl)ethyl)ureido) ethanesulfonamide], the negative logarithm of the EC50 (pEC50) is 4.74.

`COCCOCCN(C(=O)Nc1ccc(F)c(Cl)c1)C(C)c1cnc(OC)c2ccccc12` (single isomer, unassigned) [Compound 121, 3-(3-Chloro-4-fluorophenyl)-1-(2-(2-methoxyethoxy)ethyl)-1-(1-(1-methoxyisoquinolin-4-yl)ethyl)urea]: the pEC50 is 4.64.

Consider `COCCOCCN(C(=O)Nc1ccc(F)c(Cl)c1)C(C)c1cnc(OC)c2ccccc12` (single isomer, unassigned) [Compound 122, 3-(3-Chloro-4-fluorophenyl)-1-(2-(2-methoxyethoxy)ethyl)-1-(1-(1-methoxyisoquinolin-4-yl)ethyl)urea], for which the negative logarithm of the EC50 (pEC50) is 5.92.

Consider `CCOCCN(C(=O)Nc1ccc(F)c(Cl)c1)C(C)c1cnc(OC)c2ccccc12` (single isomer, unassigned) [Compound 125, 3-(3-Chloro-4-fluorophenyl)-1-(2-ethoxyethyl)-1-(1-(1-methoxyisoquinolin-4-yl)ethyl)urea], for which the negative-log EC50 (pEC50) is 4.70.

As to `CCOCCN(C(=O)Nc1ccc(F)c(Cl)c1)C(C)c1cnc(OC)c2ccccc12` (single isomer, unassigned) [Compound 126, 3-(3-Chloro-4-fluorophenyl)-1-(2-ethoxyethyl)-1-(1-(1-methoxyisoquinolin-4-yl)ethyl)urea], the pEC50 is 6.20.

For the molecule `CC(c1cnc(OCc2ncn(C)n2)c2ccccc12)N(C)C(=O)Nc1ccc(F)c(Cl)c1` (single isomer, unassigned) [Compound 132, 3-(3-Chloro-4-fluorophenyl)-1-methyl-1-(1-(1-((1-methyl-1H-1,2,4-triazol-3-yl)methoxy)isoquinolin-4-yl)ethyl)urea], the negative-log EC50 (pEC50) was 7.22.

On to `CC(c1cnc(OCc2ncn(C)n2)c2ccccc12)N(C)C(=O)Nc1ccc(F)c(Cl)c1` (single isomer, unassigned) [Compound 133, 3-(3-Chloro-4-fluorophenyl)-1-methyl-1-(1-(1-((1-methyl-1H-1,2,4-triazol-3-yl)methoxy)isoquinolin-4-yl)ethyl)urea], for which the pEC50 was 5.23.

As for `CC(=O)NCCN(C(=O)Nc1ccc(F)c(Cl)c1)C(C)c1c[nH]c(=O)c2ccccc12` (single isomer, unassigned) [Compound 138, N-(2-(3-(3-Chloro-4-fluorophenyl)-1-(1-(1-oxo-1,2-dihydroisoquinolin-4-yl)ethyl)ureido)ethyl)acetamide], the pEC50 is 4.72.

As for `CC(=O)NCCN(C(=O)Nc1ccc(F)c(Cl)c1)C(C)c1c[nH]c(=O)c2ccccc12` (single isomer, unassigned) [Compound 139, N-(2-(3-(3-Chloro-4-fluorophenyl)-1-(1-(1-oxo-1,2-dihydroisoquinolin-4-yl)ethyl)ureido)ethyl)acetamide], the negative-log EC50 (pEC50) is 6.34.

The assay is the same for the next values; noted with them: Hepatitis B virus, HepDE19, HepDE19 assay, inhibition of formation of rcDNA; read-out: DE-19bDNA EC50.
Regarding `CNC(=O)CN(C(=O)Nc1ccc(F)c(Cl)c1)C(C)c1c[nH]c(=O)c2ccccc12` (single isomer, unassigned) [Compound 129, 2-(3-(3-Chloro-4-fluorophenyl)-1-(1-(1-oxo-1,2-dihydroisoquinolin-4-yl)ethyl)ureido)-N-methylacetamide], the negative-log EC50 (pEC50) was 6.28.

The same assay, now with this note: Hepatitis B virus, HepDE19, read-out: DE-19bDNA EC50 (μM), HepDE19 assay, inhibition of formation of rcDNA.
As for `C[C@H](c1c[nH]c(=O)c2ccccc12)N(C)C(=O)Nc1ccnc(C(F)(F)F)c1` (single isomer, unassigned) [Compound 95], the EC50 amounted to 1.1 µM.

Still in this assay, the particulars now being: read-out: DE-19bDNA EC50; HepDE19 assay, inhibition of formation of rcDNA.
With `CCOCCN(C(=O)Nc1ccc(F)c(Cl)c1)C(C)c1c[nH]c(=O)c2ccccc12` (single isomer, unassigned) [Compound 109, 3-(3-Chloro-4-fluorophenyl)-1-(2-ethoxyethyl)-1-(1-(1-oxo-1,2-dihydroisoquinolin-4-yl)ethyl)urea], the negative-log EC50 (pEC50) is 5.10.

Consider `CCOCCN(C(=O)Nc1ccc(F)c(Cl)c1)C(C)c1c[nH]c(=O)c2ccccc12` (single isomer, unassigned) [Compound 110, 3-(3-Chloro-4-fluorophenyl)-1-(2-ethoxyethyl)-1-(1-(1-oxo-1,2-dihydroisoquinolin-4-yl)ethyl)urea], for which the negative logarithm of the EC50 (pEC50) is 6.77.

On to `COCCOCCN(C(=O)Nc1ccc(F)c(Cl)c1)C(C)c1c[nH]c(=O)c2ccccc12` (single isomer, unassigned) [Compound 124, 3-(3-Chloro-4-fluorophenyl)-1-(2-(2-methoxyethoxy)ethyl)-1-(1-(1-oxo-1,2-dihydroisoquinolin-4-yl)ethyl)urea], for which the negative-log EC50 (pEC50) is 6.25.

Regarding `CC(c1c[nH]c(=O)c2ccccc12)N(CCCO)C(=O)Nc1ccc(F)c(Cl)c1` (single isomer, unassigned) [Compound 130, 3-(3-Chloro-4-fluorophenyl)-1-(3-hydroxypropyl)-1-(1-(1-oxo-1,2-dihydroisoquinolin-4-yl)ethyl)urea], the negative logarithm of the EC50 (pEC50) is 5.10.

`CC(c1c[nH]c(=O)c2ccccc12)N(CCCO)C(=O)Nc1ccc(F)c(Cl)c1` (single isomer, unassigned) [Compound 131, 3-(3-Chloro-4-fluorophenyl)-1-(3-hydroxypropyl)-1-(1-(1-oxo-1,2-dihydroisoquinolin-4-yl)ethyl)urea]: the pEC50 was 8.00.

One may read the pEC50 as the EC50 on a negative log10 scale, so that one unit is a factor of ten. One may read the EC50 as the concentration giving half of the maximal effect.
